The target in one assay is Nischarin (Rattus norvegicus, UniProt Q4G017). Put plainly: Displacement of [125I]-p-iodoclonidin from I1-imidazoline receptor in rat PC12 cell membranes. Details: species or system PC-12. On the technique in general: Displacement assays read how much labelled ligand stays bound in the presence of the test substance.
The target in assay [1] is T1, Adrenergic receptor alpha-2 (Rattus norvegicus, UniProt P22086+P19328+P22909).
T1 sequence (P22086 whole entry): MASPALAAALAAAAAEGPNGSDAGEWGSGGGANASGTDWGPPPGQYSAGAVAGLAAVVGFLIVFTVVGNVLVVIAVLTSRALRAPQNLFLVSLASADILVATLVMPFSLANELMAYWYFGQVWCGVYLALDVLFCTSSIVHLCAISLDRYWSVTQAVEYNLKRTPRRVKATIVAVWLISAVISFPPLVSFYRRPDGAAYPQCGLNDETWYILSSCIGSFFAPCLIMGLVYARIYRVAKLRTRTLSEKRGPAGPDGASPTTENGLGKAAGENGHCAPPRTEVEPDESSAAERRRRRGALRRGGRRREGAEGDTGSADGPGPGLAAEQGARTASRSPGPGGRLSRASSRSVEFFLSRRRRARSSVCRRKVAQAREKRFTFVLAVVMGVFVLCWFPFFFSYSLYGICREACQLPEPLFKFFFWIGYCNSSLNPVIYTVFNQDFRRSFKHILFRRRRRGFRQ
T1 sequence (P19328 whole entry): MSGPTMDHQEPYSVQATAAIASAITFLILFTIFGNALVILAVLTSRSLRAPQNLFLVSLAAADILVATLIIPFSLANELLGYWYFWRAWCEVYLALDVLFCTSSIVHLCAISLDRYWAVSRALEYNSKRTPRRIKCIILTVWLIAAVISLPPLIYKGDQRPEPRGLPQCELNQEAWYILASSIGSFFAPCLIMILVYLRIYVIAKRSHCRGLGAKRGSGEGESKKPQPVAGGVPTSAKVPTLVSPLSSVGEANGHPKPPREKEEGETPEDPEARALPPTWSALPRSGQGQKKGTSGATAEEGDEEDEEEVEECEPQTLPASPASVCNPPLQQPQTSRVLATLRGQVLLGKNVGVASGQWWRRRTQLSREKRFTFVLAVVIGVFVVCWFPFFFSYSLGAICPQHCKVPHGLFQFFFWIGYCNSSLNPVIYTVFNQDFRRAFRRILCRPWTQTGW
T1 sequence (P22909 whole entry): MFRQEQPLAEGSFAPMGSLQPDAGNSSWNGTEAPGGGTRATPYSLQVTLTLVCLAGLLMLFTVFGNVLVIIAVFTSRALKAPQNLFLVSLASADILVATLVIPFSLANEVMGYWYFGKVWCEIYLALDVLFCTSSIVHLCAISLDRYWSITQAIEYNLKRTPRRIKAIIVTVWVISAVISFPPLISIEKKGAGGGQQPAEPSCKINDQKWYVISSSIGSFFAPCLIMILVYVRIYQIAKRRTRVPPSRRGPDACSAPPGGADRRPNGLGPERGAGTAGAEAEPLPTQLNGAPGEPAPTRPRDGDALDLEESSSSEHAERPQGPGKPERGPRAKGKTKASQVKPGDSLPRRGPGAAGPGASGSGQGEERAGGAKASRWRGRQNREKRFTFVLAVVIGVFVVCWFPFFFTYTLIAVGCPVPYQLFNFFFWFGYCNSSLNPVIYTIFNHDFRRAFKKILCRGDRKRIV
Put plainly: Displacement of [3H]-clonidine from alpha2 adrenoreceptor in rat cortex membranes. In kind it is cell membranes.

The subject of assay [2] is Rattus norvegicus. Kind of assay: Reduction in mean arterial blood pressure in spontaneously hypertensive rat at 30 mg/kg, ip administered as single dose and measured 30 mins post dose by tail-cuff plethysmography. In kind it is functional. The settings on record: 0.5 h.
The test system of assay [3] is Rattus norvegicus. Put plainly: Reduction in heart rate in spontaneously hypertensive rat at 30 mg/kg, ip administered as single dose and measured 60 mins post dose by tail-cuff plethysmography. It counts as functional. The conditions noted are these: 1 h.
Assay [4] concerns Rattus norvegicus. Kind of assay: Reduction in mean arterial blood pressure in spontaneously hypertensive rat at 30 mg/kg, ip administered as single dose and measured 60 mins post dose by tail-cuff plethysmography. It counts as functional. The conditions noted are these: 1 h.
In assay [5] the test system is Rattus norvegicus. Put plainly: Reduction in mean arterial blood pressure in spontaneously hypertensive rat at 30 mg/kg, ip administered as single dose and measured 120 mins post dose by tail-cuff plethysmography. In kind it is functional. The conditions noted are these: 2 h.
Assay [6] concerns Rattus norvegicus. Put plainly: Reduction in heart rate in spontaneously hypertensive rat at 30 mg/kg, ip administered as single dose and measured 30 mins post dose by tail-cuff plethysmography. The settings on record: 0.5 h. In kind it is functional.
Assay [7] deals with Rattus norvegicus. Kind of assay: Reduction in heart rate in spontaneously hypertensive rat at 30 mg/kg, ip administered as single dose and measured 120 mins post dose by tail-cuff plethysmography. In kind it is functional. The settings on record: 2 h.
Another assay concerns PC-12. Put plainly: Selectivity ratio, […]-imidazoline receptor in rat PC12 cell membranes to […] adrenoreceptor in rat cortex membranes. It counts as cell-based.
Assay [8] deals with Rattus norvegicus. Put plainly: Reduction in mean arterial blood pressure in spontaneously hypertensive rat at 30 mg/kg, ip administered as single dose and measured 30 to 120 mins post dose pre-treated with 30 mg/kg, ip 2-(1-phenylpropan-2-yl)-4,5-dihydro-1H-imidazole by tail-cuff plethysmography. It counts as functional, organism-based.

This note sets out measurements from ChEMBL document CHEMBL3580533, “Antagonism/Agonism modulation to build novel antihypertensives selectively triggering i1-imidazoline receptor activation” (ACS Med Chem Lett, 2015).

Calls of active or inactive are those of the source. The calls are words filed in the database; no cut-off is given here.

Sequence of Nischarin (Q4G017 whole entry): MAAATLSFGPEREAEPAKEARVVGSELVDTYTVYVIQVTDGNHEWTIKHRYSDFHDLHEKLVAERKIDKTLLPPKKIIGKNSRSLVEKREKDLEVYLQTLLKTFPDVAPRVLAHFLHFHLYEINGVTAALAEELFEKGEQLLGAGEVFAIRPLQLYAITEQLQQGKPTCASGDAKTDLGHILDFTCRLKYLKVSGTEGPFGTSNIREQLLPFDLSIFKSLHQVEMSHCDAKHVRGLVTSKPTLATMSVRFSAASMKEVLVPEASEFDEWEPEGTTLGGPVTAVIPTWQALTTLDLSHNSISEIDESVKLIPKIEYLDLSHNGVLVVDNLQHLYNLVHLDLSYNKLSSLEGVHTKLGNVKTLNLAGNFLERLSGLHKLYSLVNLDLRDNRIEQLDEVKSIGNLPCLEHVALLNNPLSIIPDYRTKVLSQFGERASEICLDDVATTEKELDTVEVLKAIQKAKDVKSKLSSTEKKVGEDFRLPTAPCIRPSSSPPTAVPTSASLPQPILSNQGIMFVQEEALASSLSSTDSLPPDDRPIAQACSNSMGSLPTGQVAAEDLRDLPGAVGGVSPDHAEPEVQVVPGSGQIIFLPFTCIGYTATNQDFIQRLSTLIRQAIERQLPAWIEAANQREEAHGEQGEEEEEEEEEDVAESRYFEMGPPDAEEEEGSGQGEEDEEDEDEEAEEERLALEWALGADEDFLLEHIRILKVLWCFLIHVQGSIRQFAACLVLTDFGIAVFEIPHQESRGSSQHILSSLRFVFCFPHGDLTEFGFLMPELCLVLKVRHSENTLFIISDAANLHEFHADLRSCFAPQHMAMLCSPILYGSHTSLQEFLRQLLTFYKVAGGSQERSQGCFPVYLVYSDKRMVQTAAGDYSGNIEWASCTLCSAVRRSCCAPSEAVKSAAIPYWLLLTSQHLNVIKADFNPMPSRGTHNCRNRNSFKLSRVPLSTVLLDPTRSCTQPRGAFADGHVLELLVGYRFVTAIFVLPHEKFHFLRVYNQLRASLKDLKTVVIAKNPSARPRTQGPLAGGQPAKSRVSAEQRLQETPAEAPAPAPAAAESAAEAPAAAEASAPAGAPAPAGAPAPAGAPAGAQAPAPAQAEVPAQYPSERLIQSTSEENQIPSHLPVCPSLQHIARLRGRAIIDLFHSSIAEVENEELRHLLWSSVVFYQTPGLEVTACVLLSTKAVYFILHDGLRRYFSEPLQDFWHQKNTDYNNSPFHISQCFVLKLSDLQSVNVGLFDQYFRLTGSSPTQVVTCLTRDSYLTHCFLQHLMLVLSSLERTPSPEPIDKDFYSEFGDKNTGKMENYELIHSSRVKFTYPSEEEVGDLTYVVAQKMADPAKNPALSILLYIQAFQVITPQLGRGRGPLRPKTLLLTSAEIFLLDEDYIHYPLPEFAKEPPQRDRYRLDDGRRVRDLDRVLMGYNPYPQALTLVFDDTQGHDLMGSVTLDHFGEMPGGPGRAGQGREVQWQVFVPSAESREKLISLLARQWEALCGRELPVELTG

Consider `Cc1ccccc1C[C@@H](C)C1=NCCN1`, for which, at Nischarin, the Ki was 1050 nM. The pKi in [1] was below 6. Also, the inhibition in vivo at 30 mg/kg in the assay on Rattus norvegicus [2] came to 8.67%; in the assay with Rattus norvegicus [3], 4.18%; with Rattus norvegicus [4] it was 12.7%; in the assay with Rattus norvegicus [5], 3.01%; in the assay on Rattus norvegicus [6] it was 9.17%; in the assay on Rattus norvegicus [7], 0%.

For `Cc1ccccc1C[C@H](C)C1=NCCN1`, on Nischarin, the Ki is 13.2 nM. The same molecule had a pKi in assay [1] below 6. Besides, the inhibition in vivo at 30 mg/kg with Rattus norvegicus [2] was determined as 34.4%; in the assay on Rattus norvegicus [3], 11.1%; in the assay on Rattus norvegicus [4], 26%; in the assay with Rattus norvegicus [5] it was 7.85%; with Rattus norvegicus [6] it was 12%; in the assay with Rattus norvegicus [7] it was 5.89%.

Consider `CC(Cc1ccccc1-c1ccsc1)C1=NCCN1` (stereo not drawn), for which the affinity at Nischarin corresponds to a Ki of 63.1 nM. This molecule also showed a pKi in assay [1] below 6. Besides, the inhibition in vivo at 30 mg/kg with Rattus norvegicus [2] is 24.8%; in the assay on Rattus norvegicus [3] it was 19.7%; in the assay with Rattus norvegicus [4] it was 35.1%; in the assay on Rattus norvegicus [5], 10.8%; in the assay on Rattus norvegicus [6], 26.4%; in the assay with Rattus norvegicus [7], 11.2%.

For `CC(Cc1ccccc1-c1ccccc1)C1=NCCN1` (stereo not drawn), the Ratio in the assay on PC-12 was determined as 513. Besides, the Ki on Nischarin is 155 nM. The pKi in [1] is 4.1. Moreover, the inhibition in vivo at 30 mg/kg in the assay with Rattus norvegicus [2] is 27.6%; in the assay with Rattus norvegicus [3], 13.8%; in the assay with Rattus norvegicus [4], 25.4%; with Rattus norvegicus [5], 34.9%; with Rattus norvegicus [6], 14.2%; with Rattus norvegicus [7], 11.9%.

Regarding `CC(Cc1ccccc1Cl)C1=NCCN1` (stereo not drawn), the inhibitory constant (Ki) on Nischarin is 195 nM. In [1], this molecule had a pKi below 6. For the same molecule, the inhibition in vivo at 30 mg/kg worked out at 37.8% in the assay with Rattus norvegicus [2]; 11.6% in the assay on Rattus norvegicus [3]; 31.4% in the assay on Rattus norvegicus [4]; 32.4% in the assay on Rattus norvegicus [5]; 11.1% in the assay on Rattus norvegicus [6]; 8.02% in the assay with Rattus norvegicus [7].

For the molecule `CC(Cc1ccccc1-c1cccc(O)c1)C1=NCCN1` (stereo not drawn), at Nischarin, the Ki is above 1000 nM. This molecule came in with a negative logarithm of the Ki (pKi) in [1] below 6.

`C[C@H](Cc1ccccc1-c1ccccc1)C1=NCCN1` showed an inhibition constant Ki at Nischarin of 2240 nM.

`CC(Cc1ccccc1-c1cccnc1)C1=NCCN1` (stereo not drawn): the Ki on Nischarin was above 1000 nM. For the same molecule, the pKi in assay [1] was below 6.

As to `CC(Oc1ccccc1-c1ccccc1)C1=NCCN1` (stereo not drawn) [BIPHENYLINE], the affinity on Nischarin corresponds to a Ki of 126 nM.

On Nischarin, `CC(Oc1ccccc1)C1=NCCN1` (stereo not drawn) showed a Ki of 309 nM.

At Nischarin, `C[C@@H](Cc1ccccc1-c1ccccc1)C1=NCCN1` had an inhibitory constant (Ki) of 97.7 nM.

Take `Cc1ccccc1CC(C)C1=NCCN1` (stereo not drawn): the affinity on Nischarin corresponds to a Ki of 23.4 nM. In addition, the pKi in assay [1] was below 6. Also, the inhibition in vivo at 30 mg/kg was 32.4% in the assay with Rattus norvegicus [2]; 13.6% in the assay with Rattus norvegicus [3]; 29.7% in the assay on Rattus norvegicus [4]; 53.1% in the assay on Rattus norvegicus [5]; 11.7% in the assay on Rattus norvegicus [6]; 7.66% with Rattus norvegicus [7]. For the same molecule, in the assay on Rattus norvegicus [8], the inhibition result is “inactive”.

A word on the Ki: it is a dissociation constant, usually derived from enzyme kinetics or from competition with a known ligand. What is called pKi is −log10 of the Ki, conventionally taken in molar units. Low readings indicate a large Ki, high ones a small Ki. A word on the inhibition in vivo: it is the change of the read-out against control, counted positive when it falls. The low end stands for little suppression, the high end for strong suppression.
